Test results as given in PubChem BioAssay AID1963849 (Molecular Pharmacology Branch, DTP, NCI, 2024).

System: 299254-011-R-J1-PDC complex spheroid viability
Test: Anticancer human tumor 299254-011-R-J1-PDC patient-derived melanoma cell line growth inhibition [POLQ]
Settings: for IC50: curve of first compound; for viability, T/C: stronger effect = lower value
Summary of the method: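 PDC + HUVEC + MSC complex spheroids; POLQ inhibitors ± partner drugs; top conc. at/near clinical Cmax, else 10 microM (SN-38 1 microM), half-log dilutions; 37 degrees C, 5% CO2.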

[1] = second compound 0.0316 µM, first compound 0.0316 µM
[2] = second compound 0.0316 µM, first compound 0.1 µM
[3] = second compound 0.0316 µM, first compound 0.316 µM
[4] = second compound 0.0316 µM, first compound 1 µM
[5] = second compound 0.0316 µM, first compound 3.16 µM
[6] = second compound 0.0316 µM, first compound 10 µM
[7] = second compound 0.1 µM, first compound 0.0316 µM
[8] = second compound 0.1 µM, first compound 0.1 µM
[9] = second compound 0.1 µM, first compound 0.316 µM
[10] = second compound 0.1 µM, first compound 1 µM
[11] = second compound 0.1 µM, first compound 3.16 µM
[12] = second compound 0.1 µM, first compound 10 µM
[13] = second compound 0.316 µM, first compound 0.0316 µM
[14] = second compound 0.316 µM, first compound 0.1 µM
[15] = second compound 0.316 µM, first compound 0.316 µM
[16] = second compound 0.316 µM, first compound 1 µM
[17] = second compound 0.316 µM, first compound 3.16 µM
[18] = second compound 0.316 µM, first compound 10 µM
[19] = second compound 1 µM, first compound 0.0316 µM
[20] = second compound 1 µM, first compound 0.1 µM
[21] = second compound 1 µM, first compound 0.316 µM
[22] = second compound 1 µM, first compound 1 µM
[23] = second compound 1 µM, first compound 3.16 µM
[24] = second compound 1 µM, first compound 10 µM
[25] = second compound 3.16 µM, first compound 0.0316 µM
[26] = second compound 3.16 µM, first compound 0.1 µM
[27] = second compound 3.16 µM, first compound 0.316 µM
[28] = second compound 3.16 µM, first compound 1 µM
[29] = second compound 3.16 µM, first compound 3.16 µM
[30] = second compound 3.16 µM, first compound 10 µM
[31] = second compound 10 µM, first compound 0.0316 µM
[32] = second compound 10 µM, first compound 0.1 µM
[33] = second compound 10 µM, first compound 0.316 µM
[34] = second compound 10 µM, first compound 1 µM
[35] = second compound 10 µM, first compound 3.16 µM
[36] = second compound 10 µM, first compound 10 µM
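Further: spheroids exposed to drugs for one week before measurement.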
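Wherever viability, T/C is given: percent viability relative to DMSO vehicle control taken as 100%.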

Q: What does the source list for O=C(Nc1ccc(O)c(NS(=O)(=O)c2ccc(F)cc2)c1)c1ccc(-c2ccccc2)cc1 + Cc1cccc(N(C)C(=O)C2C(O)CCN2c2nc(C)cc(C(F)(F)F)c2C#N)c1?
A: IC50 (second compound 0.0316 µM): > 10 µM; IC50 (second compound 0.1 µM): 9.45 µM; IC50 (second compound 0.316 µM): > 10 µM; IC50 (second compound 1 µM): > 10 µM; IC50 (second compound 3.16 µM): 9.75 µM; IC50 (second compound 10 µM): 8.66 µM; viability, T/C [1]: 102%; viability, T/C [2]: 99.2%; viability, T/C [3]: 92.7%; viability, T/C [4]: 104%; viability, T/C [5]: 99.3%; viability, T/C [6]: 54.8%; viability, T/C [7]: 105%; viability, T/C [8]: 107%; viability, T/C [9]: 98%; viability, T/C [10]: 107%; viability, T/C [11]: 96.3%; viability, T/C [12]: 47.3%; viability, T/C [13]: 102%; viability, T/C [14]: 115%; viability, T/C [15]: 98.2%; viability, T/C [16]: 123%; viability, T/C [17]: 93.7%; viability, T/C [18]: 56.2%; viability, T/C [19]: 106%; viability, T/C [20]: 111%; viability, T/C [21]: 109%; viability, T/C [22]: 104%; viability, T/C [23]: 90.7%; viability, T/C [24]: 53%; viability, T/C [25]: 108%; viability, T/C [26]: 103%; viability, T/C [27]: 101%; viability, T/C [28]: 94.8%; viability, T/C [29]: 100%; viability, T/C [30]: 48.9%; viability, T/C [31]: 98.7%; viability, T/C [32]: 98%; viability, T/C [33]: 93.6%; viability, T/C [34]: 110%; viability, T/C [35]: 83.4%; viability, T/C [36]: 45.2%

Q: With CC[C@@]1(O)C(=O)OCc2c1cc1n(c2=O)Cc2cc3c(CN(C)C)c(O)ccc3nc2-1 + Cc1cccc(N(C)C(=O)C2C(O)CCN2c2nc(C)cc(C(F)(F)F)c2C#N)c1 as the compound, how does the IC50 (second compound 0.0316 µM) read?
A: > 0.1 µM

Q: And the IC50 (second compound 0.1 µM)?
A: > 0.1 µM

Q: What about the IC50 (second compound 0.316 µM) of the same compound?
A: > 0.1 µM

Q: What about the IC50 (second compound 1 µM) of the same compound?
A: > 0.1 µM

Q: What about the IC50 (second compound 3.16 µM) of the same compound?
A: > 0.1 µM

Q: What about the IC50 (second compound 10 µM) of the same compound?
A: > 0.1 µM

Q: What about the viability, T/C (second compound 0.0316 µM, first compound 0.000316 µM) of the same compound?
A: 101%

Q: What about the viability, T/C (second compound 0.0316 µM, first compound 0.001 µM) of the same compound?
A: 100%

Q: And the viability, T/C (second compound 0.0316 µM, first compound 0.00316 µM)?
A: 95.6%

Q: And the viability, T/C (second compound 0.0316 µM, first compound 0.01 µM)?
A: 104%

Q: And the viability, T/C [1]?
A: 117%

Q: And the viability, T/C [2]?
A: 81%

Q: What about the viability, T/C (second compound 0.1 µM, first compound 0.000316 µM) of the same compound?
A: 104%

Q: What about the viability, T/C (second compound 0.1 µM, first compound 0.001 µM) of the same compound?
A: 98.6%

Q: And the viability, T/C (second compound 0.1 µM, first compound 0.00316 µM)?
A: 97%

Q: And the viability, T/C (second compound 0.1 µM, first compound 0.01 µM)?
A: 113%

Q: And the viability, T/C [7]?
A: 113%

Q: And the viability, T/C [8]?
A: 84.1%

Q: What about the viability, T/C (second compound 0.316 µM, first compound 0.000316 µM) of the same compound?
A: 110%

Q: What about the viability, T/C (second compound 0.316 µM, first compound 0.001 µM) of the same compound?
A: 115%

Q: And the viability, T/C (second compound 0.316 µM, first compound 0.00316 µM)?
A: 103%

Q: And the viability, T/C (second compound 0.316 µM, first compound 0.01 µM)?
A: 120%

Q: And the viability, T/C [13]?
A: 116%

Q: And the viability, T/C [14]?
A: 80.9%

Q: And the viability, T/C (second compound 1 µM, first compound 0.000316 µM)?
A: 111%

Q: And the viability, T/C (second compound 1 µM, first compound 0.001 µM)?
A: 112%

Q: What about the viability, T/C (second compound 1 µM, first compound 0.00316 µM) of the same compound?
A: 100%

Q: And the viability, T/C (second compound 1 µM, first compound 0.01 µM)?
A: 123%

Q: And the viability, T/C [19]?
A: 99.2%

Q: And the viability, T/C [20]?
A: 90.5%

Q: And the viability, T/C (second compound 3.16 µM, first compound 0.000316 µM)?
A: 108%

Q: What about the viability, T/C (second compound 3.16 µM, first compound 0.001 µM) of the same compound?
A: 115%

Q: And the viability, T/C (second compound 3.16 µM, first compound 0.00316 µM)?
A: 89.1%

Q: What about the viability, T/C (second compound 3.16 µM, first compound 0.01 µM) of the same compound?
A: 106%

Q: What about the viability, T/C [25] of the same compound?
A: 119%

Q: What about the viability, T/C [26] of the same compound?
A: 89.6%

Q: And the viability, T/C (second compound 10 µM, first compound 0.000316 µM)?
A: 94.9%

Q: What about the viability, T/C (second compound 10 µM, first compound 0.001 µM) of the same compound?
A: 102%

Q: And the viability, T/C (second compound 10 µM, first compound 0.00316 µM)?
A: 90.8%

Q: And the viability, T/C (second compound 10 µM, first compound 0.01 µM)?
A: 97%

Q: What about the viability, T/C [31] of the same compound?
A: 95.3%

Q: And the viability, T/C [32]?
A: 69.7%

Q: C#Cc1c(F)ccc2cc(O)cc(-c3ncc4c(N5CC6CCC(C5)N6)nc(OCC56CCCN5CC(F)C6)nc4c3F)c12 (stereo unspecified) + COC1C(OC(N)=O)C(O)C(Oc2ccc3c(O)c(NC(=O)c4ccc(O)c(CC=C(C)C)c4)c(=O)oc3c2C)OC1(C)C was tested. Which IC50 (second compound 0.0316 µM) did it give?
A: > 10 µM

Q: What about the IC50 (second compound 0.1 µM) of the same compound?
A: > 10 µM

Q: What about the IC50 (second compound 0.316 µM) of the same compound?
A: > 10 µM

Q: What about the IC50 (second compound 1 µM) of the same compound?
A: > 10 µM

Q: And the IC50 (second compound 3.16 µM)?
A: > 10 µM

Q: And the IC50 (second compound 10 µM)?
A: > 10 µM

Q: What about the viability, T/C [1] of the same compound?
A: 87.2%

Q: And the viability, T/C [2]?
A: 125%

Q: What about the viability, T/C [3] of the same compound?
A: 105%

Q: What about the viability, T/C [4] of the same compound?
A: 115%

Q: What about the viability, T/C [5] of the same compound?
A: 96.4%

Q: What about the viability, T/C [6] of the same compound?
A: 79.7%

Q: What about the viability, T/C [7] of the same compound?
A: 102%

Q: What about the viability, T/C [8] of the same compound?
A: 99.2%

Q: What about the viability, T/C [9] of the same compound?
A: 99.2%

Q: And the viability, T/C [10]?
A: 114%

Q: What about the viability, T/C [11] of the same compound?
A: 94.8%

Q: And the viability, T/C [12]?
A: 80.9%

Q: And the viability, T/C [13]?
A: 110%

Q: What about the viability, T/C [14] of the same compound?
A: 104%

Q: And the viability, T/C [15]?
A: 107%

Q: What about the viability, T/C [16] of the same compound?
A: 114%

Q: And the viability, T/C [17]?
A: 105%

Q: And the viability, T/C [18]?
A: 72.7%

Q: What about the viability, T/C [19] of the same compound?
A: 104%

Q: And the viability, T/C [20]?
A: 98.2%

Q: What about the viability, T/C [21] of the same compound?
A: 105%

Q: And the viability, T/C [22]?
A: 136%

Q: And the viability, T/C [23]?
A: 102%

Q: And the viability, T/C [24]?
A: 79.4%

Q: What about the viability, T/C [25] of the same compound?
A: 114%

Q: And the viability, T/C [26]?
A: 109%

Q: And the viability, T/C [27]?
A: 106%

Q: What about the viability, T/C [28] of the same compound?
A: 109%

Q: What about the viability, T/C [29] of the same compound?
A: 101%

Q: What about the viability, T/C [30] of the same compound?
A: 70.6%

Q: What about the viability, T/C [31] of the same compound?
A: 93.9%

Q: What about the viability, T/C [32] of the same compound?
A: 99.7%

Q: What about the viability, T/C [33] of the same compound?
A: 111%

Q: What about the viability, T/C [34] of the same compound?
A: 101%

Q: And the viability, T/C [35]?
A: 111%

Q: And the viability, T/C [36]?
A: 69.2%
